Results taken from US7910609B2, “Inhibitors of integrin alpha2beta1 with modified urea moiety” (The Trustees Of The University Of Pennsylvania, priority 2005, dated 2011).

How the values were obtained:
integrin α2β1 = molecular target: T1, integrin α2β1 (Homo sapiens, UniProt P05556+P17301); assay: Platelet adhesion assay: washed human platelet binding to soluble type I collagen; type: cell-based
T1 construct: Human blood was obtained by venipuncture from healthy volunteers; endogenous in cells; host or cells: washed human platelets from blood of healthy volunteers
Method: The series of compounds was tested for the ability to block washed human platelet binding to soluble type I collagen. […] Further understanding was sought with respect to the SAR of the urea functionality and its spatial positioning.
(§1) Preparation of Washed Platelets. All Studies were Conducted Following IRB-approved protocols at the University of Pennsylvania. Human blood was obtained by venipuncture from healthy volunteers using 0.3% sodium citrate as anticoagulant, then acid-citrate-dextrose was added (1 mL per 10 mL blood). Platelet-rich plasma (PRP) was then prepared by centrifugation at 200 g for 20 min. Platelets were obtained from the PRP by addition of prostacyclin (PG I2: 0.1 μg/ml) followed by centrifugation at 1000 g for 10 min. The pelleted platelets were resuspended in HEPES/Tyrode's buffer (20 mM HEPES, 129 mM NaCl, 0.34 mM Na2HPO4, 2.9 mM KCl, 12 mM NaHCO3, 5 mM glucose, 1 mm MgCl2, pH 7.3) and repelleted by repeated PG I2 addition and centrifugation.
(§2) Platelet Adhesion Assays. Immulon 2 flat bottom 96-well Plates (Dynatech Labs, Burlington, Mass.) were coated with soluble type I collagen, fibronectin (FN) or osteopontin (OPN) (5 μg/ml) in PBS for 48 hrs at 4° C. The plates were then washed and blocked with BSA (5 mg/ml in PBS) for at least 24 hr. Adhesion assays using type I collagen contained test compound and 1.6×10^7 Platelets in GFP buffer in a final volume of 100 μl. The plates were then incubated for 30 min at 37° C. and washed with TBS (10 mM Tris, 150 mM NaCl, pH 7.4). Quantification of adherent platelets was performed as previously described.^[27] Briefly, the platelets were stained for acid phosphatase by adding 0.1 M sodium citrate (pH 5.4) with 0.1% Triton X-100 containing 5 mM p-nitrophenyl phosphate substrate (100 μl/well) and incubated for 40 min at 37° C. Color was then developed by the addition of 50 μl 2.0 M NaOH per well and the plates were read at 405 nm in a Molecular Devices Spectra Max M5 microplate reader. Adhesion to FN- and OPN-coated plates were performed similarly using a modified GFP buffer for resuspension (4 mM HEPES, 147 mM NaCl, 2.7 mM KCl, 0.35% BSA, 0.1% glucose, 1 mM MgCl2, 1 mM MnCl2, pH 7.4). Platelets were stimulated in OPN binding by addition of 20 μM ADP during incubation.^[28] The platelets in αvβ3-mediated binding to FN were pre-treated with 2 μg per mL ReoPro (abciximab, chimeric 7E3 Fab; Centocor, Malvern Pa.) for 20 minutes at RT.

integrin α5β1 = molecular target: T2, integrin α5β1 (Homo sapiens, UniProt P05556+P08648); assay: Platelet adhesion to fibronectin (in the presence of abciximab); type: cell-based; conditions: Table 2 selectivity, ligand Fibronectin
T2 construct: Platelets express several integrins, including αIIbβ3, αvβ3, α2β1, α5β1, and α6β1; endogenous in cells; host or cells: washed human platelets from blood of healthy volunteers
Method: as §1
as §2, with “The platelets in αvβ3-mediated binding to FN were pre-treated with 2 μg per mL ReoPro (abciximab, chimeric 7E3 Fab; Centocor, Malvern Pa.) for 20 minutes at RT.” left out

[1] = Table 1, washed human platelets, soluble type I collagen, 30 min at 37° C.
[2] = Compounds Produced in Accordance with Scheme 2

T1 sequence (P17301 30-1181): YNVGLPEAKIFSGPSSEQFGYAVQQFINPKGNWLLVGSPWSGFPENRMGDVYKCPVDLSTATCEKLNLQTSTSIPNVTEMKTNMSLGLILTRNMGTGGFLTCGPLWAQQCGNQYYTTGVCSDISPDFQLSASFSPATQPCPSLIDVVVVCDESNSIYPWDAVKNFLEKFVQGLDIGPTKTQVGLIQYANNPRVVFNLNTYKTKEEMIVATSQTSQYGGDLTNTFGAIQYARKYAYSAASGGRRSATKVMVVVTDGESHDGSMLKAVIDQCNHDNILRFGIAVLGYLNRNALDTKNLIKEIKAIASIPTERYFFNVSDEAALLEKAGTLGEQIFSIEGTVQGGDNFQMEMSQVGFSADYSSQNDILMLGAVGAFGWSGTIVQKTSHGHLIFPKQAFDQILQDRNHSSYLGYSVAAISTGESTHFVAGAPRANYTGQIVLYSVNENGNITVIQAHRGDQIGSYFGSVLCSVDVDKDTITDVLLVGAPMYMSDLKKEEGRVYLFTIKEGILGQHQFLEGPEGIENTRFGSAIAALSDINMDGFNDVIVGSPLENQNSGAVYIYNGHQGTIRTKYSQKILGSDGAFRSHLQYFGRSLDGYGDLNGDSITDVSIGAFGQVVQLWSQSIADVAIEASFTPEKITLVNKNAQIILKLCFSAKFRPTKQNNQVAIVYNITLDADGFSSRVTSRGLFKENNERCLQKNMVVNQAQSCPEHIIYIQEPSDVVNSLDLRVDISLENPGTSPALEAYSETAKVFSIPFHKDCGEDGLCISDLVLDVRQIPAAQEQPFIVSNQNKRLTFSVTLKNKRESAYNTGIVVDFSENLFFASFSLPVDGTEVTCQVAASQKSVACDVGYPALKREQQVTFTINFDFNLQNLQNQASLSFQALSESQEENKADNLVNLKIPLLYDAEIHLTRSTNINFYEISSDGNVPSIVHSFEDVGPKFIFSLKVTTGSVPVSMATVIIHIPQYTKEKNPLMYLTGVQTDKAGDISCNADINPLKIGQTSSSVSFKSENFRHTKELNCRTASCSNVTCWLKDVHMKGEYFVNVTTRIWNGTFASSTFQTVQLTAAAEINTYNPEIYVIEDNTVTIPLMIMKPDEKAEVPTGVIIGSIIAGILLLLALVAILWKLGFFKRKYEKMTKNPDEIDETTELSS
T1 sequence (P05556 21-798): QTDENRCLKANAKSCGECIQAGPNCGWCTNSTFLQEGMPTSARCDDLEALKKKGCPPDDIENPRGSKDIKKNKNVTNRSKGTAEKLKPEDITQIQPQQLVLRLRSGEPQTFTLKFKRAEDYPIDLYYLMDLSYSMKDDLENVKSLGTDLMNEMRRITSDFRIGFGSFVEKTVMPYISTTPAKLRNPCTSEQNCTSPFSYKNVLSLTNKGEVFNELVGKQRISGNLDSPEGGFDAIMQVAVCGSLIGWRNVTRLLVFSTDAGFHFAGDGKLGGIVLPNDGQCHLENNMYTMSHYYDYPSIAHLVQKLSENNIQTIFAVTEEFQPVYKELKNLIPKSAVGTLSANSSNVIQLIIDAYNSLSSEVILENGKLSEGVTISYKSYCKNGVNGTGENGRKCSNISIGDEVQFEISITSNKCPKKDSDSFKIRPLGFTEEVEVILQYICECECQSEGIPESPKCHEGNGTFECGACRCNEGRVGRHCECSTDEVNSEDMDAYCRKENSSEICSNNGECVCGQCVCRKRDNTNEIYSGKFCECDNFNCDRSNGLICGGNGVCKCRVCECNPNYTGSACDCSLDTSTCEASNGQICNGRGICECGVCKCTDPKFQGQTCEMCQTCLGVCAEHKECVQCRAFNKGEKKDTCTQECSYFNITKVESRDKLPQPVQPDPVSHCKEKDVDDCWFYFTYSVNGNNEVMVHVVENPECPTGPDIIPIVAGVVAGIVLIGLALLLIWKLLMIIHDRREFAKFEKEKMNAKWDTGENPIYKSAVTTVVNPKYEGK
T2 sequence (P08648 42-894 limits assumed): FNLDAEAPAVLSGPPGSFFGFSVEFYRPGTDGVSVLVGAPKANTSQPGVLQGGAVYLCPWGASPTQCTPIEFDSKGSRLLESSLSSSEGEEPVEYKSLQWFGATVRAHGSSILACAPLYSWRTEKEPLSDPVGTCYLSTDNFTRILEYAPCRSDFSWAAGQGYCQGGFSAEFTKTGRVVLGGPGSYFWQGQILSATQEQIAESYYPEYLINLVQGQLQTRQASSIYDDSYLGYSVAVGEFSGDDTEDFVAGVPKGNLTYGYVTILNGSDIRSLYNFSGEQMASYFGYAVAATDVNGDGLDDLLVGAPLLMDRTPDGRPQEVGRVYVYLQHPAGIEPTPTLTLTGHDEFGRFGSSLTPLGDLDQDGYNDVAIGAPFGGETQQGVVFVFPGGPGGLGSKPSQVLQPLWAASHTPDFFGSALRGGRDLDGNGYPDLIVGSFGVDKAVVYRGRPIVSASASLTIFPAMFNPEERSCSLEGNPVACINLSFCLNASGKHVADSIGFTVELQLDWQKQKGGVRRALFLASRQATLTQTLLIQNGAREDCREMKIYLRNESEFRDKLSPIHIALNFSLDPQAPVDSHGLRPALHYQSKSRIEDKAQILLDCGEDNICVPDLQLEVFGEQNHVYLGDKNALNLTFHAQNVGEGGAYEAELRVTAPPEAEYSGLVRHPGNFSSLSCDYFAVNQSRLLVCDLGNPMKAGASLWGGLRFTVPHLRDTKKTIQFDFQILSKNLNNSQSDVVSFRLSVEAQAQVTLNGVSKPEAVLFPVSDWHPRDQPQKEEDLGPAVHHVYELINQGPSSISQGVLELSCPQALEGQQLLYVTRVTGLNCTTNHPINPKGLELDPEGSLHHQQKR
T2 sequence (P08648 895-1049 limits assumed): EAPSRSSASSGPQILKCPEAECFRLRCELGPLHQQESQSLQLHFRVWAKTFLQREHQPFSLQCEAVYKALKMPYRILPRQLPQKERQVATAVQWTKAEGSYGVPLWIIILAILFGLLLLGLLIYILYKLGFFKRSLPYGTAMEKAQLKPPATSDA
T2 sequence (P05556 21-798): as the sequence (P05556 21-798) above

IC50 (integrin α2β1; [1]) [nM]	Structure (SMILES)	other results
8	Cc1cccc(CNC(=O)NC[C@H](NC(=O)C2N(S(=O)(=O)c3ccccc3)CSC2(C)C)C(=O)O)c1 (some centres unmarked) [Compound 10]	IC50 (integrin α5β1): > 1000 nM
> 500	C[C@H](NC(=O)NC[C@H](NC(=O)C1N(S(=O)(=O)c2ccccc2)CSC1(C)C)C(=O)O)c1ccccc1 (some centres unmarked) [Compound 8]	
6	Cc1ccc(CNC(=O)NC[C@H](NC(=O)C2N(S(=O)(=O)c3ccccc3)CSC2(C)C)C(=O)O)cc1 (some centres unmarked) [Compound 11]	
	CC1OCN(S(=O)(=O)c2ccccc2)C1C(=O)NC(CNC(=O)NCc1ccccc1)C(=O)O (centres unmarked) [Compound 27, 2-[(3-Benzenesulfonyl-5-methyl-oxazolidine-4-carbonyl)-amino]-3-(3-benzyl-ureido)-propionic acid]	IC50 (integrin α2β1; [2]): 12 nM
15	CC(C)(C)CNC(=O)NC[C@H](NC(=O)C1N(S(=O)(=O)c2ccccc2)CSC1(C)C)C(=O)O (some centres unmarked) [Compound 19]	
6	CC1(C)SCN(S(=O)(=O)c2ccccc2)C1C(=O)N[C@@H](CNC(=O)NCc1ccc(Cl)cc1)C(=O)O (some centres unmarked) [Compound 15]	IC50 (integrin α5β1): > 1000 nM
4	Cc1ccccc1CNC(=O)NC[C@H](NC(=O)C1N(S(=O)(=O)c2ccccc2)CSC1(C)C)C(=O)O (some centres unmarked) [Compound 9]	IC50 (integrin α5β1): > 1000 nM
> 2000	CC1(C)SCN(S(=O)(=O)c2ccccc2)C1C(=O)N[C@@H](CNC(=O)NCC(c1ccccc1)c1ccccc1)C(=O)O (some centres unmarked) [Compound 20]	
	O=C(NCc1ccccc1)NCC(NC(=O)C1CCN1S(=O)(=O)c1ccccc1)C(=O)O (centres unmarked) [Compound 24, 2-[(1-Benzenesulfonyl-azetidine-2-carbonyl)-amino]-3-(3-benzyl-ureido)-propionic acid]	IC50 (integrin α2β1; [2]): 215 nM
28	CC1(C)SCN(S(=O)(=O)c2ccccc2)C1C(=O)N[C@@H](CNC(=O)NCC1CCCCC1)C(=O)O (some centres unmarked) [Compound 23]	
133	CC1(C)SCN(S(=O)(=O)c2ccccc2)C1C(=O)N[C@@H](CNC(=O)NCCc1ccccc1)C(=O)O (some centres unmarked) [Compound 22]	
7	CC1(C)SCN(S(=O)(=O)c2ccccc2)C1C(=O)N[C@@H](CNC(=S)NCc1ccccc1)C(=O)O (some centres unmarked) [Compound 6]	
4	CC1(C)SCN(S(=O)(=O)c2ccccc2)C1C(=O)N[C@@H](CNC(=O)NCc1ccc(Br)cc1)C(=O)O (some centres unmarked) [Compound 16]	
320	CC1(C)SCN(S(=O)(=O)c2ccccc2)C1C(=O)N[C@@H](CNC(=O)NC(c1ccccc1)c1ccccc1)C(=O)O (some centres unmarked) [Compound 21]	
41	CC1(C)SCN(S(=O)(=O)c2ccccc2)C1C(=O)N[C@@H](CNC(=O)NCc1ccc(C(F)(F)F)cc1)C(=O)O (some centres unmarked) [Compound 17]	
22	C[C@@H](NC(=O)NC[C@H](NC(=O)C1N(S(=O)(=O)c2ccccc2)CSC1(C)C)C(=O)O)c1ccccc1 (some centres unmarked) [Compound 7]	greater potency of (R) conformation (7) than (S) conformation (8) (integrin α2β1; 7 versus 8, platelet adhesion to type I collagen): > 25 fold
